Source: US20260191954A1, “COMPOSITIONS AND METHODS FOR NEOADJUVANT TREATMENT IN CANCER” (INNATE PHARMA, priority 2022, published 2026)
Each block holds one compound with its values, some of them ahead of it.

What was measured:
[1] = test system: H1703 tumor cell line; assay: ATP release from squamous NSCLC H1703 tumor cells after chemotherapy (CellTiter-Glo); type: cell-based; settings: culture supernatant, FIG. 2
Procedure: This experiment aimed as studying ATP release from squamous NSCLC tumor cells following chemotherapy treatment. The squamous NSCLC H1703 tumor cell line was incubated separately with different chemotherapies. The measurement of ATP release was performed 24 h after Cisplatin treatment, 72 h after Carboplatin, 60 h after Oxaliplatin, 48 h after Pemetrexed, 48 h after Gemcitabine, 72 h after 5-FU, 24 h after Paclitaxel and 40 h after Docetaxel. Extracellular ATP release in the culture supernatant was measured with a luminescent-based assay (CellTiter-Glo®) and expressed in Luminescence Arbitrary Unit (AU). Means+/−SD.
Result are shown in FIG. 2, showing ATP release from H1703 tumor cell line (sqNSCLC) following the treatment with different chemotherapies, cisplatin, carboplatin, oxaliplatin, pemetrexed, gemcitabine, 5-Fu, paclitaxel and docetaxel.

[2] = molecular target: T1, recombinant human CD39 protein (huCD39) (Homo sapiens, UniProt P49961); assay: eATP release by H1703 (CD39-) cells incubated with recombinant huCD39, with or without IPH5201, then docetaxel; type: cell-based; settings: H1703 (CD39-) cells; docetaxel 0.1 μM; 40 h; FIG. 3A
T1 sequence (P49961 38-478 limits assumed): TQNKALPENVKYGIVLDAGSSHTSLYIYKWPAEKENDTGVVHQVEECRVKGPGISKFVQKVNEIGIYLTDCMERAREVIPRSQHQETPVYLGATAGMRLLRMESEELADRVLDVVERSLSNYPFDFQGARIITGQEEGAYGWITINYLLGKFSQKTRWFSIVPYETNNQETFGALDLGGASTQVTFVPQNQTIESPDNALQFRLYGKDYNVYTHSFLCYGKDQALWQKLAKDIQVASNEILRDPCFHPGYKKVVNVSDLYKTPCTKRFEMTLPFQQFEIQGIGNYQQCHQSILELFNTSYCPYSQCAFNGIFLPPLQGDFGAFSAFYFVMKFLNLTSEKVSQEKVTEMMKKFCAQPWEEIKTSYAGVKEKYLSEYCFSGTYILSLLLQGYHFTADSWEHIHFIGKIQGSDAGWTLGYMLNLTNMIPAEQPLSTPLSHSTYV
Procedure: H1703 (CD39−) cells were incubated with recombinant human CD39 protein (huCD39) (400 ng/ml) to mimic soluble CD39 in tumor microenvironment with or without IPH5201 (humanized anti-CD39 antibody having the respective heavy and light chain amino acid sequences of SEQ ID NOS: 10 and 11) at 10 μg/mL and then treated with docetaxel (0.1 μM). The measure of extracellular ATP (eATP) release was performed 40 h after docetaxel treatment.
(§1) OAW42 (CD39+) cells were incubated with 10 or 50 μg/mL of IPH5201 and treated with a dose range of docetaxel. The measure of eATP release was performed 30 h after docetaxel treatment. eATP was measured in the cell culture supernatant with a luminescent-based assay (CellTiter-Glo®) and expressed in Luminescence Arbitrary Unit (AU). Means+/−SD.

[3] = test system: OAW42 (CD39+) cells; assay: eATP release in OAW42 (CD39+) cells with IPH5201 and docetaxel; type: cell-based; settings: docetaxel dose range, 30 h, FIG. 3B
Procedure: as §1

[4] = test system: MC38 cancer cell line; assay: MC38 tumor growth in huCD39KI mice (gemcitabine +/- anti-PD-L1 +/- molPH5201); type: in vivo, human CD39 knock-in (huCD39KI) mice; settings: for tumor growth compared to the control: p<0.001
Procedure: In vivo experiments were performed in human CD39 knock-in (huCD39KI) mice, genetically modified to express human CD39 in place of its murine counterpart mouse CD39. These mice were sub-cutaneously (s.c.) engrafted with the MC38 cancer cell line. Mice bearing established tumors were dosed with isotype control (IC) antibodies, anti-human CD39 antibody (molPH5201, described above), gemcitabine chemotherapy and anti-mouse PD-L1 antibody (an antibody that binds murine PD-L1 having an Fc domain with amino acid substitutions to eliminate binding to mouse Fcγ receptors.
Male and female huCD39KI mice were engrafted subcutaneously (s.c.) with 1×10^6 MC38 cancer cells. Treatments were initiated after mouse randomization. Mice were treated twice a week for two weeks with gemcitabine (25 mg/kg) or PBS (at day 8, 11, 15 and 18 after cell engraftment) and once a week for four weeks with either anti-human CD39 antibody (molPH5201) or the corresponding isotype control (IC) antibody (400 μg/mouse).
Randomization of mice into four groups was performed on day 7 post tumor cell engraftment, at a mean tumor volume of 72 mm^3±27 mm^3 with individual tumor volumes comprised between 37 and 130 mm^3.
(§2) Male and female huCD39KI mice were engrafted s.c. with 1×10^6 MC38. Treatments were initiated after mouse randomization. Mice were treated twice a week for two weeks with gemcitabine (25 mg/kg) or PBS, twice a week for three weeks with either anti-mouse PD-L1 antibody or the corresponding IC antibody (200 μg/mouse) and once a week for four or five weeks depending on the experiment with either anti-human CD39 antibody (molPH5201) or the corresponding IC antibody (400 μg/mouse). Mouse randomization into five groups was performed on day 7 post tumor cell engraftment at a mean tumor volume of 62 mm^3±23 mm^3 with individual tumor volumes comprised between 31 and 117 mm^3.
as §2, with “As in Experiment 1, male” for “Male”, “64” for “62”, “115” for “117”
as §2, with “As in Experiments 1 and 2, male” for “Male”, “engraftment,” for “engraftment”, “74 mm^3±21” for “62 mm^3±23”, “40” for “31”, “121” for “117”
The three experiments were pooled and results are shown in FIG. 9, showing Tumor growth of MC38 tumor in huCD39KI mice post treatment with gemcitabine+/−anti-PD-L1+/−molPH5201. MC38 tumor-bearing huCD39KI mice were randomized on day 7 and then treated as indicated with 25 mg/kg ip of gemcitabine or PBS, 200 μg ip of anti-mouse PD-L1 antibody or corresponding isotype control antibody and with 400 μg iv of molPH5201 or corresponding IC antibody. Graphs show tumor growth in each individual (n=31/group). CR: Complete Response.

[5] = Phase 1 study of IPH5201 +/- durvalumab in advanced solid tumours: safety; type: in vivo; settings: of 19 patients given IPH5201+durvalumab (1500 mg Q3W)
Procedure: A first-in-human, multicentre, non-randomised, open-label, phase 1 study was conducted in order to assess the safety, efficacy, pharmacokinetics (PK) and pharmacodynamics (PD) of IPH5201±durvalumab (Imfinzi™) in patients with advanced solid tumours. The study consisted of two consecutive dose-escalation parts: • Part 1: Ascending doses of IPH5201 (100, 300, 1000 and 3000 mg) every 3 weeks (Q3W). • Part 2: Ascending doses of IPH5201 (300, 1000 and 3000 mg) and 1500 mg durvalumab Q3W.
PD cohorts enrolled patients with advanced squamous cell lung carcinoma or advanced pancreatic ductal adenocarcinoma in the top two dose levels of Parts 1 and 2. Primary endpoints were safety and tolerability. Key secondary endpoints included preliminary antitumour activity measured by objective response and disease control per RECIST v1.1, PK and immunogenicity. Exploratory endpoints included efficacy measured by duration of response and progression-free survival (PFS) per RECIST v1.1, overall survival and assessment of biomarkers.
Key inclusion criteria were: • Adults aged ≥18 years. • Histologically or cytologically confirmed advanced solid tumours. • At least one measurable lesion per RECIST v1.1. • Refractoriness to standard therapy or disease for which no standard therapy exists. • Eastern Cooperative Oncology Group Performance Status of 0 or 1. • Archival or fresh tumour sample. • Key exclusion criteria were: • Previous treatment with any agents targeting CD73, CD39, or adenosine receptors. • Treatment with any conventional or investigational anticancer therapy within 21 days of the first planned dose. • Active or prior autoimmune or inflammatory disorders within the past 5 years. • Cardiac and vascular criteria including presence of acute coronary syndrome or thromboembolic events within 6 months prior to enrolment, congestive heart failure, serious cardiac arrhythmia requiring medication, or uncontrolled hypertension. • Untreated metastases to the central nervous system.
Overall, 57 patients received treatment (IPH5201, n=38; IPH5201+durvalumab, n=19). […] Treatment-emergent adverse events (TEAEs) occurred in 96.5% of patients; 40.4% had grade ≥3 TEAEs. […] Treatment-related adverse events (TRAEs) occurred in 66.7% of patients (37/57 (64.9%) related to IPH5201; 11/19 (57.9%) related to durvalumab). […] The most common TRAEs were infusion-related reactions (21.1%), fatigue (17.5%), nausea, arthralgia, tumour pain and pruritus (8.8% each). […] Maximum tolerated dose (MTD) was not reached.

Compound: O=c1[nH]cc(F)c(=O)[nH]1 [5-Fu, 5-FU]
ATP release ([1]; 72 h after 5-FU): induced significant ATP release

Compound: N.N.O=C([O-])C1(C(=O)[O-])CCC1.[Pt+2] [carboplatin]
ATP release ([1]; 72 h after Carboplatin): induced significant ATP release

Compound: N.N.[Cl][Pt][Cl] [cisplatin]
ATP release ([1]; 24 h after Cisplatin treatment): induced significant ATP release

extracellular ATP (eATP) release [2]: induced strong release of eATP
Compound: CC(=O)O[C@@]12CO[C@@H]1C[C@H](O)[C@@]1(C)C(=O)[C@H](O)C3=C(C)[C@@H](OC(=O)[C@H](O)[C@@H](NC(=O)OC(C)(C)C)c4ccccc4)C[C@@](O)([C@@H](OC(=O)c4ccccc4)[C@H]21)C3(C)C [docetaxel, reference compound]
ATP release ([1]; 40 h after Docetaxel): induced significant ATP release | eATP release [3]: at best a modest release of eATP

Compound: Nc1ccn([C@@H]2O[C@H](CO)[C@@H](O)C2(F)F)c(=O)n1 [gemcitabine, reference compound]
tumor growth compared to the control ([4]; Experiment 1 (FIG. 6)): significantly slowed down tumor growth | tumor growth compared to the control ([4]; Experiment 2 (FIG. 7)): significantly slowed down tumor growth | tumor growth compared to the control ([4]; Experiment 3 (FIG. 8)): significantly inhibited tumor growth | tumor growth compared to the control group ([4]; gemcitabine +/- molPH5201 experiment (FIG. 5), gemcitabine 25 mg/kg, molPH5201 400 μg/mouse, p<0.001 where significant): drastically and significantly slowed down tumor growth | ATP release ([1]; 48 h after Gemcitabine): induced significant ATP release

Compound: O=C1[O][Pt]2([NH][C@@H]3CCCC[C@H]3[NH]2)[O]C1=O [oxaliplatin]
ATP release ([1]; 60 h after Oxaliplatin): induced significant ATP release

Compound: CC(=O)O[C@H]1C(=O)[C@@]2(C)[C@H]([C@H](OC(=O)c3ccccc3)[C@]3(O)C[C@H](OC(=O)[C@H](O)[C@@H](NC(=O)c4ccccc4)c4ccccc4)C(C)=C1C3(C)C)[C@]1(OC(C)=O)CO[C@@H]1C[C@@H]2O [paclitaxel]
ATP release ([1]; 24 h after Paclitaxel): induced significant ATP release

Compound: Nc1nc2[nH]cc(CCc3ccc(C(=O)N[C@@H](CCC(=O)O)C(=O)O)cc3)c2c(=O)[nH]1 [pemetrexed]
ATP release ([1]; 48 h after Pemetrexed): induced significant ATP release

Compound: durvalumab [reference compound]
patients with TRAEs related to durvalumab [5]: 57.9% | patients with TRAEs related to durvalumab, count [5]: 11/19
